# “Also recorded” adds a separate entry of the source.
# Key:
# ERK = assay: Effect of 6D6-1 on ERK and PEA-15 subcellular location in primary astrocyte cultures (confocal microscopy); assay type: cell-based, mouse; details: primary astrocytes, 24 hours without serum; 50 μM 6D6-1 for 2 hours 15 minutes
# Experimental: Primary astrocyte cultures were prepared from cortex and striatum of mouse embryos (day 16) as described by ARAUJO et al. (J. Biol. Chem., 1993, 268: 5911).
# The primary astrocyte cultures were maintained for 24 hours in the absence of serum, a condition known to induce a mainly cytoplasmic location of ERK.
# The cells were then treated or not with 50 μM of the 6D6-1 compound for 2 hours 15 minutes.
# The subcellular location of ERK and PEA-15 was observed by confocal microscopy after labeling the cells with fluorescent antibodies.
# The cells were washed twice with PBS (Dulbecco phosphate saline buffer, without CaCl2 nor MgCl2, Sigma), and fixed with 4% paraformaldehyde in PBS (pH 7.5), for 15 minutes, then washed twice with PBS comprising 0.1 M of glycine, at ambient temperature.
# Then, the cells were incubated for 5 minutes in PBS containing 0.2% of X-100 triton.
# The non-specific sites were blocked with PBS containing 10% of normal goat serum (NGS) for one hour at ambient temperature.
# Then the cells were incubated overnight at 4° C. with PEA-15 specific antibodies (rabbit polyclonal antibody, Sharif et al., Neuroscience, 2004) or ERK specific antibodies (rabbit polyclonal antibody, Santa Cruz K-23 (ref. Sc-94)), diluted in PBS containing 1.5% of NGS. […]
# GFP-PEA-15 = target: T1, GFP-PEA-15 (Mus musculus, UniProt Q62048); assay: Detection of the interaction of 6D6-1 with GFP-PEA-15 by FRET in 3T3-GFP-PEA-15 cells; assay type: cell-based; details: 6D6-1 tested at 10^-4 M and 10^-5 M, 60 minutes, excitation 465 nm
# T1 construct: expressed in transfected cells
# T1 sequence (Q62048 whole entry): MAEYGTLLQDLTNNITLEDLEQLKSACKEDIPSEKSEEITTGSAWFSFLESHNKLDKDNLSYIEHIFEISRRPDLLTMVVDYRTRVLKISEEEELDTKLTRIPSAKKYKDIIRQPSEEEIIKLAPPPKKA
# Experimental: The cell line 3T3 expressing the GFP-PEA-15 (3T3-GFP-PEA-15 cell) was obtained as described by FORMSTECHER et al. (Dev. Cell., 2001, 1:239) by transfection of NIH3T3 cells with a EGFP-PEA-15 plasmide obtained as described by KITSBERG et al. (J. Neurosci., 1999, 19: 8244).
# Clones resistant to the neomycin (G418) were selected and cultivated in a DMEM (Roche) medium supplemented with 10% of foetal calf serum, 2 mM of glutamine, penicillin (5 IU/ml) and streptomycin ([…]).
# The GFP-PEA-15 protein expression was checked by the measurement of the fluorescence of the living cells and a WESTERN transfer analysis with an anti-GFP antibody (Roche, cat. No. 1,814,460 mixture of two monoclonal antibodies obtained from a mouse (clone 7.1 and clone 13.1)) and an anti-PEA-15 (rabbit polyclonal antibody, Sharif et al., Neuroscience, 126: 263, 2004).
# The 3T3-GFP-PEA-15 cells are then cultivated up to confluence in a HAM-F12 medium comprising penicillin (10 000 U/ml)/streptomycin (10 000 μg/ml), 7% of foetal calf serum (BIOWHITTAKER) before the fluorescence resonance energy transfer (FRET) experiences. […]
# After adding the 6D6-1 compound, the cells are gently agitated (100 rpm) for 60 minutes before the fluorescence read-out, in order to enable the compounds to diffuse and enter into the cells. […]
# The GFP protein excited at 465 nm emits a fluorescence signal at 535 nm.
# [1] = target: T2, GST-PEA-15 fusion protein (Mus musculus, UniProt Q62048); assay: 6D6-1/PEA-15 protein interaction: fluorescence of glutathione Sepharose beads carrying GST-PEA-15; assay type: binding
# T2 construct: made in house
# T2 sequence (Q62048 whole entry, the tested form may be a part): as the sequence (Q62048 whole entry) above
# Experimental: The GST-PEA-15 fusion protein was obtained according to the protocol described by Kitsberg et al. (J. Neurosci, 1999, 19: 8244).
# The GST-PEA-15 fusion proteins were recovered after lysis of bacteria and were incubated together with a Sepharose bead covered with glutathione.
# The beads thus obtained are incubated in the presence of 1 or 5 μM of 6D6-1, in a 20 mM Tris-HCl, pH 7.4; 100 mM NaCl; 1 mM MgCl2; 1% Triton X-100 buffer).
# After a series of three washings, the beads are dried on a cellulose membrane and the fluorescence is quantified by means of a phosphoimager (Biorad), by measuring the fluorescence of the lissamine with excitation at 543 nm and measurement of the emission at 590 nm.
# The results are the average of three independent experiences.
substance,measurement,setting,value
1-methyl-piperidin-4-His(Bzl)-Lys(o-Lissamine)-1-methyl-1H-imidazol-4-yl)-acetamide [Compound 6D6-1],subcellular location of ERK,ERK,relocation of the ERK protein in the core; also recorded: relocation of ERK in the nucleus
same,subcellular location of PEA-15,ERK,remains cytoplasmic
same,"fluorescence resonance energy transfer (FRET) on binding to GFP-PEA-15, fluorescence signal at 590 nm",GFP-PEA-15,enables a fluorescence resonance energy transfer (FRET)
same,average intensity of fluorescence of beads carrying GST-PEA-15,"[1]; 1 or 5 μM 6D6-1, excitation 543 nm, emission 590 nm, average of three independent experiences",depends upon the concentration of the compound
same,interaction with PEA-15 protein,[1]; general statement of the inventors' observation,able to interact in a specific way with a PEA-15 protein

# Source: patent US20090170749A1, “Novel Compounds Which Interact With PEA-15” (Institut National De La Sante Et De La Recherche Medicale …, priority 2005, published 2009)
